Laboratory results from PubChem BioAssay AID179 (DTP/NCI, 2004).
Values joined by “and” are separate entries in the source; they are usually repeats but may differ in a detail not shown here. Equal entries are not always repeated. Active and inactive are the calls of the source.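 How the source made its calls: active means compounds giving half or more protection of infected cells from virus-caused growth loss, again on retest; inactive means the rest.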

Test system: CEM cells HIV-1 protection, formazan growth assay
Experiment: NCI AIDS Antiviral Assay
Conditions: for IC50: measured here: growth of uninfected CEM cells
Procedure, shortened: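 Five concentrations of each compound were applied to infected and uninfected human CEM cells. Protection from HIV-1 was judged from growth measured with a soluble formazan assay.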

Structure (SMILES)	EC50	IC50	outcome
COc1cc(-c2c(C(C)=O)c(-c3ccccc3)n(C3OC(COC(C)=O)C(OC(C)=O)C(OC(C)=O)C3OC(C)=O)c(=S)c2C#N)ccc1O (configuration not stated)	> 200 µM	74.1 µM and 45.7 µM	–
C[C@@]1(Cc2ccccc2)C(=O)N2[C@@H](CO)C(c3ccccc3)O[C@]2(C)c2ccccc21 (some centres not stated)	> 33.1 µM	> 33.1 µM	–
O=c1c2c([nH]c3nccn13)CCCC2	> 200 µM	> 200 µM	–
O=c1[nH]c(Nc2ccccc2)nc2c1ncn2CC(O)CSCCO (configuration not stated)	> 200 µM	> 200 µM	–
O=C(O)CCC1CCc2cccc3occ1c23 (configuration not stated)	–	–	inactive
O=C1C(=O)N(c2ccc(Cl)cc2)C(=O)C(=O)C1c1nc2ccccc2o1	–	–	inactive
O=c1[nH]nc(Nc2ccccc2)c2nnn(C3CCCCC3)c12	> 174 µM	> 174 µM	–
COc1cccc(/C=N/NC(=O)c2ccccc2[O-])c1[O-].[Cu+2].[OH3+]	> 200 µM	> 200 µM	–
CN=C(SC)N(C)c1nc(=[N+](C)C)ss1	–	–	inactive
CC(=O)NCc1nc(C#N)c(N)o1	> 200 µM	> 200 µM	–
COC(=O)C1(NC(=O)C(N)CC(=O)O)CC1(C)C (configuration not stated)	> 200 µM	> 200 µM	–
NC(=O)C(NN=C(c1ccccc1)c1ccccc1)c1ccccc1 (configuration not stated)	–	–	inactive
Cc1nc2c(sc3nc4ccccc4n32)c(=O)[nH]1	> 100 µM	> 100 µM	–
COc1ccc(C2C(Cl)C(=O)N2NC(=O)c2ccccc2O)cc1 (configuration not stated)	> 145 µM	> 145 µM	–
C[C@@H]1C2(O)CC34CC(=O)OC3(C[C@@H](O)[C@H]4C)C1(C)CO2 (some centres not stated)	> 891 µM	> 891 µM	–
COc1cc(OC)cc(C2(C#N)CCN(C)CC2)c1	> 191 µM	> 191 µM	–
COc1ccc2[nH]c3c(C)c4ccnc(NCCCN(C)CCCNc5ccc([N+](=O)[O-])c6[nH]c7ccccc7c(=O)c56)c4c(C)c3c2c1	> 0.0501 µM	0.0257 µM	–
C1CCN2CC3CC(CN4CCCCC34)C2C1 (configuration not stated)	> 759 µM	> 759 µM	–

Structure (SMILES)	EC50	IC50	outcome
O=C1C=Cc2ccccc2/C1=C/c1nc(-c2ccccc2)oc1O	> 100 µM	58.9 µM	–
S=C(NCc1ccccc1-c1ccccc1)Nc1ccc(Br)cn1	> 2 µM	0.38 µM	–
CCC1CCN=C(Cn2cc(C)c(=O)[nH]c2=O)N1 (configuration not stated)	> 200 µM	> 200 µM	–
Cc1cc(=O)c(C#N)c(C)s1	> 200 µM	> 200 µM	–
COC(=O)[C@H](C)NC(=O)[C@H](NS(=O)(=O)c1nc2ccccc2s1)c1ccccc1	> 200 µM	37.2 µM	–
COc1c[c]([Hg][O]C(C)=O)c(OC)c(NC(=O)CC(C)=O)[c]1[Hg][O]C(C)=O	> 0.724 µM	> 0.724 µM	–
C[C@]12CCC(=O)C=C1CC[C@@H]1C2CC[C@]2(C)NC(=O)C(C#N)CC12 (some centres not stated)	–	–	inactive
C=CC1(c2ccccc2Cl)N/C(=C/OCC)CO1 (configuration not stated)	> 26.9 µM	> 26.9 µM	–
c1ccc2c(c1)CCN1CCc3ccccc3C1C2 (configuration not stated)	> 200 µM	36.3 µM	–
CCCn1ccc(=O)c(O)c1C	> 200 µM	35.5 µM	–
NCCc1cc2c3c(c1)CCCN3CCC2	> 200 µM	11.2 µM	–
CC1(C)[C@@H]2C[C@H]1C(Cc1ccc(C[C@H]3c4cc(-c5ccccn5)ncc4[C@H]4C[C@@H]3C4(C)C)cc1)c1cc(-c3ccccn3)ncc12 (some centres not stated)	> 20 µM	0.813 µM	–
CCN(CC)C(=S)N=Nc1c(O)[nH]c2ccccc12	> 200 µM	1.1 µM	–
CN(C)c1ccc(/C=C(\NC(=O)c2ccccc2)C(=O)NC(Cc2c[nH]c3ccccc23)C(=O)O)cc1 (configuration not stated)	> 100 µM	> 100 µM	–
C#CC(C)(C)OCCCCOc1cc(O)c2c(=O)c3ccccc3n(C)c2c1	> 3.8 µM	> 3.8 µM	–
Nc1nn2cc3c(nc2c1N=Nc1ccc(Cl)cc1)-c1ccccc1CC3	> 100 µM	> 100 µM	–
CC(C)OC(=O)C1(C(C)C)CCc2ccc(C(=O)CCC(=O)O)cc21 (configuration not stated)	> 200 µM	178 µM	–
CCCCCCCCCCCCCCCCCCNC(=S)/N=C\C(C(=O)Nc1ccccc1C)=C(/C)O	> 200 µM	115 µM	–
